Reference: ChEMBL document CHEMBL1201862, “PubChem BioAssay data set” (2004)
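Tested at 5 concentrations; 48 h exposure; 96-well plates; endpoints linearly interpolated, else capped at highest concentration. Abbreviation: GI50, concentration required for 50% inhibition of growth.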 Active and inactive are the calls of the source. No stated cut-off is given here; in the data, active = GI50 up to about 1.1 µM and inactive = higher.

Key:
Test in all cases: NCI anticancer screen, dose series, 48 h
786-0 = tested on: 786-0
A498 = tested on: A498
A549 = tested on: A549
ACHN = tested on: ACHN
CAKI-1 = tested on: CAKI-1
CCRF-CEM = tested on: CCRF-CEM
COLO 205 = tested on: COLO 205
DLD-1 = tested on: DLD-1
DMS-273 = tested on: DMS-273
EKVX = tested on: EKVX
HCC 2998 = tested on: HCC 2998
HCT-116 = tested on: HCT-116
HCT-15 = tested on: HCT-15
HL-60 = tested on: HL-60
HOP-18 = tested on: HOP-18
HOP-62 = tested on: HOP-62
HOP-92 = tested on: HOP-92
HT-29 = tested on: HT-29
IGROV-1 = tested on: IGROV-1
KM-20L2 = tested on: KM-20L2
KM12 = tested on: KM12
LOX IMVI = tested on: LOX IMVI
LXFL 529 = tested on: LXFL 529
M14 = tested on: M14
M19-MEL = tested on: M19-MEL
MOLT-4 = tested on: MOLT-4
Malme-3M = tested on: Malme-3M
NCI-H460 = tested on: NCI-H460
NCI-H522 = tested on: NCI-H522
OVCAR-3 = tested on: OVCAR-3
OVCAR-4 = tested on: OVCAR-4
OVCAR-5 = tested on: OVCAR-5
OVCAR-8 = tested on: OVCAR-8
RPMI-8226 = tested on: RPMI-8226
RXF 393 = tested on: RXF 393
SF-268 = tested on: SF-268
SF-295 = tested on: SF-295
SF-539 = tested on: SF-539
SK-MEL-28 = tested on: SK-MEL-28
SK-MEL-5 = tested on: SK-MEL-5
SK-OV-3 = tested on: SK-OV-3
SN12C = tested on: SN12C
SNB-19 = tested on: SNB-19
SNB-75 = tested on: SNB-75
SNB-78 = tested on: SNB-78
SR = tested on: SR
SW-620 = tested on: SW-620
TK-10 = tested on: TK-10
U-251 = tested on: U-251
UACC-257 = tested on: UACC-257
UACC-62 = tested on: UACC-62
UO-31 = tested on: UO-31
DMS-114 = tested on: DMS-114
K562 = tested on: K562
NCI-H226 = tested on: NCI-H226
NCI-H23 = tested on: NCI-H23
SK-MEL-2 = tested on: SK-MEL-2
XF498 = tested on: XF498

Measured: GI50

O=C1/C(=C/c2ccc3c(c2)OCCO3)CCC/C1=C\c1ccc2c(c1)OCCO2
24.5 µM: HCT-15
inactive: 786-0 22.9 µM | A498 27.7 µM | A549 23.8 µM | ACHN 39.9 µM | CAKI-1 39.3 µM | CCRF-CEM 29.9 µM | COLO 205 15.6 µM | DLD-1 15.8 µM | DMS-273 8.99 µM | EKVX 51.3 µM | HCC 2998 18.1 µM | HCT-116 2.53 µM | HL-60 12.3 µM | HOP-18 23.9 µM | HOP-62 33.3 µM | HOP-92 32.1 µM | HT-29 6.9 µM | IGROV-1 32.8 µM | KM-20L2 10.8 µM | KM12 6.21 µM | LOX IMVI 8.41 µM | LXFL 529 37.5 µM | M14 19 µM | M19-MEL 18.2 µM | MOLT-4 20.5 µM | Malme-3M 29 µM | NCI-H460 22.8 µM | NCI-H522 35.4 µM | OVCAR-3 20.3 µM | OVCAR-4 21.1 µM | OVCAR-5 32.9 µM | OVCAR-8 15.9 µM | RPMI-8226 16.1 µM | RXF 393 20 µM | SF-268 26.2 µM | SF-295 17 µM | SF-539 19.2 µM | SK-MEL-28 24.3 µM | SK-MEL-5 25.6 µM | SK-OV-3 83.8 µM | SN12C 25.7 µM | SNB-19 34.8 µM | SNB-75 24.9 µM | SNB-78 26.8 µM | SR 23.8 µM | SW-620 18.2 µM | TK-10 36.9 µM | U-251 14.2 µM | UACC-257 20.1 µM | UACC-62 23 µM | UO-31 82.4 µM

COc1cc2ccnc(-c3c4ccccc4c(N)c4c(OC)c(OC)ccc34)c2cc1OC
inactive: 786-0 2.65 µM | A498 3.02 µM | A549 4.17 µM | ACHN 3.54 µM | CAKI-1 2.65 µM | CCRF-CEM 2.37 µM | COLO 205 1.58 µM | DLD-1 3.04 µM | DMS-114 2.59 µM | DMS-273 1.53 µM | EKVX 10.4 µM | HCC 2998 2.62 µM | HL-60 1.39 µM | HOP-62 2.96 µM | HOP-92 1.79 µM | HT-29 2.64 µM | IGROV-1 3.24 µM | K562 1.55 µM | KM12 2.38 µM | LOX IMVI 1.52 µM | LXFL 529 3.6 µM | M19-MEL 3.87 µM | MOLT-4 1.49 µM | Malme-3M 3.32 µM | NCI-H226 2.07 µM | NCI-H23 3.21 µM | NCI-H460 1.79 µM | NCI-H522 3.16 µM | OVCAR-4 1.97 µM | OVCAR-8 3.6 µM | RXF 393 2.4 µM | SF-268 3.01 µM | SF-295 3.18 µM | SF-539 2.09 µM | SK-MEL-28 2.36 µM | SK-MEL-2 4.86 µM | SK-MEL-5 3.27 µM | SK-OV-3 7.13 µM | SN12C 3.47 µM | SNB-19 2.85 µM | SNB-78 3.66 µM | SR 1.8 µM | SW-620 2.28 µM | TK-10 10.4 µM | U-251 3.37 µM | UACC-257 2.32 µM | UACC-62 2.79 µM | UO-31 3.18 µM | XF498 2.64 µM
